Usually IC50 stands for the concentration at which inhibition is half-maximal.

Read-outs that look alike come from different tables or passages of the source. Where only a bound is given, the exact number is not on record here.

The values that follow come from patent US11780821B2, “Inhibitors of fibroblast activation protein” (Praxis Biotech LLC, priority 2017, dated 2023).

Format in all cases: biochemical
One assay deals with T1, mouse plasma FAPα (Mus musculus, UniProt P97321).
T1 construct: from tissue; host or cells: mouse plasma (C57BL/6, EDTA)
T1 sequence (P97321 24-761 limits assumed): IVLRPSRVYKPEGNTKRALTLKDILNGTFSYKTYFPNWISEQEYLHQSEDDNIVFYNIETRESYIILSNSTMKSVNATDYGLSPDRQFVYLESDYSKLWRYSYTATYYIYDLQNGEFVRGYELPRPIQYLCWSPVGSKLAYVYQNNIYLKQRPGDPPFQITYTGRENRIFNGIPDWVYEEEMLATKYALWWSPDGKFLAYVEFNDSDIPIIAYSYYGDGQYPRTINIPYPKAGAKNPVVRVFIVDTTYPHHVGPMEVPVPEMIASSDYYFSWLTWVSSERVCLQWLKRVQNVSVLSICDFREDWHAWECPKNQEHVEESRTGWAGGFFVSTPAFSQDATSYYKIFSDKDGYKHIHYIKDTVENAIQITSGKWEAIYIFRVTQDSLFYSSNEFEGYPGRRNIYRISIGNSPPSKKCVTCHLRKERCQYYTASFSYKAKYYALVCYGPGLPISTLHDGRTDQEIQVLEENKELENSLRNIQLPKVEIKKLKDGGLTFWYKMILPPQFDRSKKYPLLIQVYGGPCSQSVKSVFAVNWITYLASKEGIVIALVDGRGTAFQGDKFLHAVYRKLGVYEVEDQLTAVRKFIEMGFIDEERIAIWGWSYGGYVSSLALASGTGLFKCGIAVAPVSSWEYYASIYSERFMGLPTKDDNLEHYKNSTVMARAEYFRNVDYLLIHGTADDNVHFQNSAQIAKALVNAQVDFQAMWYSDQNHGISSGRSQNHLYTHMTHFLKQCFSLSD
In words: FAPα enzymatic activity in mouse plasma. The note with it: C57BL/6 mouse plasma. The method, then: The blood sample was immediately centrifuged at approximately 9000 g at 4° C. for 5 minutes. Plasma was separated and stored at −80° C. in aliquots of 300 μL. […] The assay was performed for 1 hour at 37° C. protected from light. 7-Amino-4-Methylcoumarin (AMC) release was detected measuring fluorescence at an excitation wavelength of 380 nm and an emission wavelength of 460 nm using a Multifunction Microplate Reader (Synergy 4, Biotek). All measurements were carried out at least as a single point.

The target of assay [1] is T2, recombinant human PREP (rhPREP) (Homo sapiens, UniProt P48147).
T2 sequence (P48147 1-710): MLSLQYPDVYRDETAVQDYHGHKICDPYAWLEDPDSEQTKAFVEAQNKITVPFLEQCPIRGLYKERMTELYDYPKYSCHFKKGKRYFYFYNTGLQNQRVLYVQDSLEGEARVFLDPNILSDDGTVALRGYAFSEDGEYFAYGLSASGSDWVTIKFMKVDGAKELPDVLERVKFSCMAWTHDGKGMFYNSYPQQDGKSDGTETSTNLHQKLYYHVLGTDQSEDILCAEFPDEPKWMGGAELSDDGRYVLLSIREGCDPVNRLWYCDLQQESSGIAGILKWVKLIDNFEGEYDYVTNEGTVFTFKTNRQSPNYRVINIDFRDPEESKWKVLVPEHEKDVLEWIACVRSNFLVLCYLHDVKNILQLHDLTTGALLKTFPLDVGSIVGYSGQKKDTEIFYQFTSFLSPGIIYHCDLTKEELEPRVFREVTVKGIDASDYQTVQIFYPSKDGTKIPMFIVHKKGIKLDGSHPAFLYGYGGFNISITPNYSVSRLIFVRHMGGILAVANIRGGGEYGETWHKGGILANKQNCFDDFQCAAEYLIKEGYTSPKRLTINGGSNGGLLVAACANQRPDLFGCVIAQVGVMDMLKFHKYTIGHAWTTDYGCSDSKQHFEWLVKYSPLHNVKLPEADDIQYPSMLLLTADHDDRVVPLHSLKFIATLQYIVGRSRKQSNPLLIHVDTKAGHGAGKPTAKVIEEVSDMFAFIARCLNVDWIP
In words: PREP enzymatic activity assay. The conditions noted are these: Z-Gly-Pro-AMC substrate. The method, then:
(§1) 7-Amino-4-Methylcoumarin (AMC) release was detected by measuring fluorescence at Ex/Em 380/460 nm using a Multifunction Microplate Reader (Synergy 4, Biotek). All measurements were carried out in triplicate.

The target of assay [2] is T3, recombinant human DPPIV (rhDPPIV) (Homo sapiens, UniProt P27487).
T3 construct: purchased R&S system (so in the source)
T3 sequence (P27487 whole entry): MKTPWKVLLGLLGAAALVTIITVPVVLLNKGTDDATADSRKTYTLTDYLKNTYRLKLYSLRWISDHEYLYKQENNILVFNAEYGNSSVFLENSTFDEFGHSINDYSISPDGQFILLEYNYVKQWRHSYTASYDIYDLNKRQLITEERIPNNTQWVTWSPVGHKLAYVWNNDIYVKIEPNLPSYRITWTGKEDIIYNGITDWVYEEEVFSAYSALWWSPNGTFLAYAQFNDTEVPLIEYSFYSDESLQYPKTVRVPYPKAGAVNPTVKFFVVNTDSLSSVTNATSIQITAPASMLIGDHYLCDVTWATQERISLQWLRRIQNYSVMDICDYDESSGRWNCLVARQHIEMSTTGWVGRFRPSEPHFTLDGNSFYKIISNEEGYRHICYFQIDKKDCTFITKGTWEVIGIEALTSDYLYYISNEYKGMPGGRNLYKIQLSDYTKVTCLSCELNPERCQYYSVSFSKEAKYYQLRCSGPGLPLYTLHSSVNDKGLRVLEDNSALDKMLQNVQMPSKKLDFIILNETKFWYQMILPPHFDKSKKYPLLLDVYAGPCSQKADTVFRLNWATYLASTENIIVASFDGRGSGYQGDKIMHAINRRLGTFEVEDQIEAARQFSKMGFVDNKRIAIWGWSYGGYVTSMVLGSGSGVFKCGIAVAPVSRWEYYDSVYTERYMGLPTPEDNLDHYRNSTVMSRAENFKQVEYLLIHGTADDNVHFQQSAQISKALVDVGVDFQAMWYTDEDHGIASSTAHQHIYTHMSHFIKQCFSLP
Put plainly: DPPIV enzymatic activity assay. The conditions noted are these: H-Gly-Pro-pNA substrate.

The target in assay [3] is T4, recombinant human DPP9 (rhDPP9) (Homo sapiens, UniProt Q86TI2).
T4 construct: purchased R&S system (so in the source)
T4 sequence (Q86TI2 whole entry): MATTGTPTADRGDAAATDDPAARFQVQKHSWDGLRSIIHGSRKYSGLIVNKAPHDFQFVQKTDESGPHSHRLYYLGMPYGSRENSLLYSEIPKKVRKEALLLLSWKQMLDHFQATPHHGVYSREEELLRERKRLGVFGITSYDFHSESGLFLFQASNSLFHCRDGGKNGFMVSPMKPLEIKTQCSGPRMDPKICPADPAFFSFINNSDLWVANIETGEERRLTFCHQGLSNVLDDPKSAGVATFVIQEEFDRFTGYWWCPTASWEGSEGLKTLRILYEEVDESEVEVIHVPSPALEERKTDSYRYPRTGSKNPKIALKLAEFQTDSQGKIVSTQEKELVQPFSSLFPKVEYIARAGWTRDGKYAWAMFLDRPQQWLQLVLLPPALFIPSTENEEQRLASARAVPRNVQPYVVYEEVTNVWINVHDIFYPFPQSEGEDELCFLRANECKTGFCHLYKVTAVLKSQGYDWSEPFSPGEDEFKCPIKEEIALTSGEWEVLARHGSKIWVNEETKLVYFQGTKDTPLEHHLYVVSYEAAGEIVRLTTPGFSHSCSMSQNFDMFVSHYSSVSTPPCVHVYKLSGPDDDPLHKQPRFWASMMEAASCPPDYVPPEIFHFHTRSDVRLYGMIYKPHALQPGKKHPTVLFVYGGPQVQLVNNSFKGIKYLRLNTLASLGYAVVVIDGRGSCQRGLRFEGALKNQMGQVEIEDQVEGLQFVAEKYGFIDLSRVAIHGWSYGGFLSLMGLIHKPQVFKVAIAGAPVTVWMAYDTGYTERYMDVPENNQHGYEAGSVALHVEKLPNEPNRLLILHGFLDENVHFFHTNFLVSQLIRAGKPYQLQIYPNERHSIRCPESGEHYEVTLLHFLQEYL
In words: DPP9 enzymatic activity assay. The conditions noted are these: H-Gly-Pro-AMC substrate. The method, then: as §1

In assay [4] the target is T5, recombinant human FAPα (rhFAPα) (Homo sapiens, UniProt Q12884).
T5 construct: purchased R&S system (so in the source)
T5 sequence (Q12884 1-760): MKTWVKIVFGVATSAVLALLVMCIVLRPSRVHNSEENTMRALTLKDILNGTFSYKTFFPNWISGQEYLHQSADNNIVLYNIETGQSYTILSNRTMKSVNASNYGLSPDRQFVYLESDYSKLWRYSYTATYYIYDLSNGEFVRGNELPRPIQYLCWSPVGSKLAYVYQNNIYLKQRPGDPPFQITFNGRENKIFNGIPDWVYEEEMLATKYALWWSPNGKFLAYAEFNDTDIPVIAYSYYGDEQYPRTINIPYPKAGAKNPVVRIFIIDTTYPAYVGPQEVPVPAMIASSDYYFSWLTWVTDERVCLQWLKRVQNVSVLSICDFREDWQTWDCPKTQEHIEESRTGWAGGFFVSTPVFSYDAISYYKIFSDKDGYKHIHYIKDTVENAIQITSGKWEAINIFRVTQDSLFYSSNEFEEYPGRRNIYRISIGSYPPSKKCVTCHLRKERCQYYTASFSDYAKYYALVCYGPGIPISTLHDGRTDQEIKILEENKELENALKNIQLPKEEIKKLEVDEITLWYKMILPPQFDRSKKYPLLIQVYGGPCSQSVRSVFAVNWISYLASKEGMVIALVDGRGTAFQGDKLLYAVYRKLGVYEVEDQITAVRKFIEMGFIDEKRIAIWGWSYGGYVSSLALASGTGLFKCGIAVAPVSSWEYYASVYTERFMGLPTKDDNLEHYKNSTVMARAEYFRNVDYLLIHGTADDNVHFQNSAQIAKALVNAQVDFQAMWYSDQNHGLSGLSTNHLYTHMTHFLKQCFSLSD
In words: FAPα enzymatic exopeptidase (dipeptidase) activity assay. The note with it: for inhibition at 1 µM: read-out: rhFAPα (% exo inh @ 1 μM); for IC50: exopeptidase, read-out: rhFAPα (exo IC50).

The mark [5] stands for this setting: PRXS-AMC substrate, read-out: mouse plasma FAPα (PRXS-AMC) (exo IC50).
[6] abbreviates: Z-Gly-Pro-AMC substrate, read-out: mouse plasma FAPα (Z-Gly-Pro-AMC) (exo IC50).
[7] abbreviates: 1 μM test compound, Z-Gly-Pro-AMC substrate.

Turning to `Cn1ncc2c(-c3cnccc3C(=O)NCC(=O)N3CC(F)(F)C[C@H]3C#N)cccc21` [Compound 87, (S)—N-(2-(2-cyano-4,4-difluoropyrrolidin-1-yl)-2-oxoethyl)-3-(1-methyl-1H-indazol-4-yl)isonicotinamide], the 50% inhibitory concentration (IC50) at mouse plasma FAPα (setting [5]) is under 1000 nM; at mouse plasma FAPα (setting [6]) it was under 1000 nM; in assay [1] it was over 10000 nM; in assay [2], over 10000 nM; in assay [3], over 10000 nM; in assay [4] (Table 2, Z-Gly-Pro-AMC), under 1000 nM. Further, the IC50 in assay [4] (Table 3) was under 1000 nM. For the same compound, the inhibition at 1 µM in assay [4] (setting [7]) is over 50%.
Consider `N#C[C@@H]1CC(F)(F)CN1C(=O)CNC(=O)c1ccncc1N1CCOCC1` [Compound 88, N-[2-[(2S)-2-cyano-4,4-difluoro-pyrrolidin-1-yl]-2-oxo-ethyl]-3-morpholino-pyridine-4-carboxamide], for which the IC50 is under 1000 nM at mouse plasma FAPα (setting [5]); under 1000 nM at mouse plasma FAPα (setting [6]); over 10000 nM in assay [1]; 1000 to 10000 nM in assay [2]; 1000 to 10000 nM in assay [3]; under 1000 nM in assay [4] (Table 2, Z-Gly-Pro-AMC). The IC50 in assay [4] (Table 3) was under 1000 nM. Also, the inhibition at 1 µM in assay [4] (setting [7]) was over 50%.
`N#C[C@@H]1CC(F)(F)CN1C(=O)CNC(=O)c1ccncc1C1=CCNCC1` [Compound 105, (S)—N-(2-(2-cyano-4,4-difluoropyrrolidin-1-yl)-2-oxoethyl)-1′,2′,3′,6′-tetrahydro-[3,4′-bipyridine]-4-carboxamide 2,2,2-trifluoroacetate]: the half-inhibitory concentration (IC50) at mouse plasma FAPα (setting [5]) is under 1000 nM; in assay [1], over 10000 nM; in assay [2], over 10000 nM; in assay [3], over 10000 nM; in assay [4] (Table 2, Z-Gly-Pro-AMC) it was under 1000 nM; in assay [4] (Table 3), under 1000 nM. The inhibition at 1 µM in assay [4] is over 50%.
Consider `N#C[C@@H]1CC(F)(F)CN1C(=O)CNC(=O)c1c[nH]c(=O)cc1-c1ccc(F)cc1` [Compound 109, (S)—N-(2-(2-cyano-4,4-difluoropyrrolidin-1-yl)-2-oxoethyl)-4-(4-fluorophenyl)-6-oxo-1,6-dihydropyridine-3-carboxamide], for which the IC50 was under 1000 nM on mouse plasma FAPα (setting [5]); over 10000 nM in assay [1]; 1000 to 10000 nM in assay [2]; 1000 to 10000 nM in assay [3]; under 1000 nM in assay [4] (Table 2, Z-Gly-Pro-AMC); under 1000 nM in assay [4] (Table 3). Moreover, in assay [4], the inhibition at 1 µM is over 50%.
Regarding `C=C(c1ccccc1)c1cnccc1C(=O)NCC(=O)N1CC(F)(F)C[C@H]1C#N` [Compound 122, (S)—N-(2-(2-cyano-4,4-difluoropyrrolidin-1-yl)-2-oxoethyl)-3-(1-phenylvinyl)isonicotinamide], the IC50 at mouse plasma FAPα (setting [5]) is under 1000 nM; in assay [1], over 10000 nM; in assay [2], over 10000 nM; in assay [3], over 10000 nM; in assay [4] (Table 2, Z-Gly-Pro-AMC), under 1000 nM; in assay [4] (Table 3) it was under 1000 nM. Further, the inhibition at 1 µM in assay [4] was over 50%.
Turning to `N#C[C@@H]1CC(F)(F)CN1C(=O)CNC(=O)c1c[nH]c(=O)c2ccccc12` [Example 1, (S)—N-(2-(2-cyano-4,4-difluoropyrrolidin-1-yl)-2-oxoethyl)-1-oxo-1,2-dihydroisoquinoline-4-carboxamide], the IC50 was under 1000 nM on mouse plasma FAPα (setting [6]); 1000 to 10000 nM in assay [1]; 1000 to 10000 nM in assay [2]; 1000 to 10000 nM in assay [3]; under 1000 nM in assay [4] (Table 2, Z-Gly-Pro-AMC); under 1000 nM in assay [4] (Table 3).
